# Assay results reported in ChEMBL document CHEMBL1201862, “PubChem BioAssay data set” (2004).
# Activity calls are given as the source filed them.
# Assays:
# [1] = molecular target: Luciferin 4-monooxygenase (Photinus pyralis, UniProt P08659); test: Counter Screen for Luciferase-based Assay Positives. [Related pubchem assays: 620, 618, 411 ]
# [2] = Trypanosoma cruzi growth suppression in host cells – NIH3T3 host cells, beta-gal luminescence, confirmation (AID 2044); type: functional, cell-based;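 also: intracellular parasites grown in NIH/3T3 mouse fibroblasts as host cells; luminescent beta-galactosidase reporter signal from transgenic T. cruzi replicating inside host cells; inhibitors lower the luminescence signal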
# HT-1080 = test: HT1080 cell viability loss – fluorescence readout (AID 620); type: functional, cell-based; conditions: Homo sapiens
# [3] = NIH3T3 cell viability loss – ATP luminescence, mouse fibroblasts, counter-screen, dose response (AID 2010); type: functional, cell-based;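 also: cells exposed to compound for about 90 hours before reading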
# [4] = molecular target: G-protein coupled receptor 55 (Homo sapiens, UniProt Q9Y2T6); test: selective activators of receptor GPR55 – imaging, U2OS cells, beta-arrestin-GFP redistribution, primary screen (AID 1961); type: functional
# Sequence of G-protein coupled receptor 55 (Q9Y2T6 whole entry): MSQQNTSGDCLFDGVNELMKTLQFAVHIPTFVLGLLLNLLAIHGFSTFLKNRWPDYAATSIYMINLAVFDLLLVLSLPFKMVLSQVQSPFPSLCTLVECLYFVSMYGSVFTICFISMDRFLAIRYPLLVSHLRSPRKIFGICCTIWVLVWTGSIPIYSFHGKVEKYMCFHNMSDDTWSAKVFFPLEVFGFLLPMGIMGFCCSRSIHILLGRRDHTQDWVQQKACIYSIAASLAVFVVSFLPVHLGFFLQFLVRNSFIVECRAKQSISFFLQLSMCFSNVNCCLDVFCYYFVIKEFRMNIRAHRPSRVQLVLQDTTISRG
# Vero [5] = test: cells; type: functional, cell-based; conditions: Chlorocebus sabaeus
# INS1 = test: INS-1E survival protection against cytokine death – cell-based, luminescence, retest, dose response (AID 449756); type: functional; conditions: Rattus norvegicus;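 also: cell death triggered by IL-1 beta plus TNF-alpha plus IFN-gamma mixture; protective hits raise ATP signal compared with cytokine alone wells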
# Vero [6] = test: cells; type: functional; conditions: Chlorocebus sabaeus
# [7] = molecular target: T1, Type-1 angiotensin II receptor (Homo sapiens, UniProt P30556); test: agonist activity at AGTR1 – cell-based, uHTS hits, selectivity assay for APJ receptor agonist project, dose response (AID 488865); type: functional;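 also: beta-arrestin recruitment to AT1 measured by enzyme fragment complementation luminescence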
# T1 sequence (P30556 whole entry): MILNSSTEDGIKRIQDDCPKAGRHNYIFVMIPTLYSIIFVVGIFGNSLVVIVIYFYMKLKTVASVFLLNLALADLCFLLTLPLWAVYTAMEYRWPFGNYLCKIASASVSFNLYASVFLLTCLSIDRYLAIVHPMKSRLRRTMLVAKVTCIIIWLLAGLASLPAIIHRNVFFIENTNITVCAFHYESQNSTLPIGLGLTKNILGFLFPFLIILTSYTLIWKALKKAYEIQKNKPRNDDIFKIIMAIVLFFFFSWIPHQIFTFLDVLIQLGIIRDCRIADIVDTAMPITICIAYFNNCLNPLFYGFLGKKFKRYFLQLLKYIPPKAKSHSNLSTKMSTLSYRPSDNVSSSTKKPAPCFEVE
# Cytochrome P450 2C9 = Cytochrome P450 2C9 (Homo sapiens, UniProt P11712)
# Sequence of Cytochrome P450 2C9 (P11712 whole entry): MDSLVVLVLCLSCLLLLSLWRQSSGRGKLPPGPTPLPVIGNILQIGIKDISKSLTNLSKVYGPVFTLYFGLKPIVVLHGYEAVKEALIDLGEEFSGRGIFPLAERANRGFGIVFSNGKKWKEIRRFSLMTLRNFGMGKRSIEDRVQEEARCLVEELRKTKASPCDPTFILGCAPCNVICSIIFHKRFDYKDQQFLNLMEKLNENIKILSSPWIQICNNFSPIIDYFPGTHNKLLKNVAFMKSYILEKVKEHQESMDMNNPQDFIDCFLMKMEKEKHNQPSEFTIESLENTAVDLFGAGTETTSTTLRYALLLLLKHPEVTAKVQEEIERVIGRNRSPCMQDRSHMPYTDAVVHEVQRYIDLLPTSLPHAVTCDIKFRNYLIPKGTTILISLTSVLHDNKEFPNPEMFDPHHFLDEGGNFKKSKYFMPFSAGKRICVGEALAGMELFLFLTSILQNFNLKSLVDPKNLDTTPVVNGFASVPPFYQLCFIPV
# [8] = THP-1 cell cytotoxicity, dose response, cytotoxicity control for non-replicating M. tuberculosis project (AID 489025); type: functional
# [9] = HepG2 cell cytotoxicity, dose response, cytotoxicity control for non-replicating M. tuberculosis project (AID 489018); type: functional; conditions: Mycobacterium tuberculosis
# [10] = Vero E6 cell cytotoxicity, dose response, cytotoxicity control for non-replicating M. tuberculosis project, secondary assay (AID 492998); type: functional, VeroE6; conditions: Vero C1008
# cells = type: functional
# [11] = molecular target: Glyceraldehyde-3-phosphate dehydrogenase (Homo sapiens, UniProt P04406)
# Sequence of Glyceraldehyde-3-phosphate dehydrogenase (P04406 whole entry): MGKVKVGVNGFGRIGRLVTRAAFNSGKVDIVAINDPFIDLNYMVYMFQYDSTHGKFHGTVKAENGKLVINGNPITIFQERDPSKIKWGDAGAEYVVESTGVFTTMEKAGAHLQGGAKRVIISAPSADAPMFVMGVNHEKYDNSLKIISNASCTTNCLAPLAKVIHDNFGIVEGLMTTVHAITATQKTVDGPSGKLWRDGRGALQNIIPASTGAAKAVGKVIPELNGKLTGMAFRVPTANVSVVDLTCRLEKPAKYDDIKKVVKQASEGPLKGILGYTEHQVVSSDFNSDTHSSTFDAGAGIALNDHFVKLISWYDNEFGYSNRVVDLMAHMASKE
# [12] = molecular target: T2, Alkaline phosphatase, tissue-nonspecific isozyme (Homo sapiens, UniProt P05186); test: potency against alkaline phosphatase TNAP – biochemical, luminescent, dose response, SAR follow-up (AID 1056)
# T2 sequence (P05186 whole entry): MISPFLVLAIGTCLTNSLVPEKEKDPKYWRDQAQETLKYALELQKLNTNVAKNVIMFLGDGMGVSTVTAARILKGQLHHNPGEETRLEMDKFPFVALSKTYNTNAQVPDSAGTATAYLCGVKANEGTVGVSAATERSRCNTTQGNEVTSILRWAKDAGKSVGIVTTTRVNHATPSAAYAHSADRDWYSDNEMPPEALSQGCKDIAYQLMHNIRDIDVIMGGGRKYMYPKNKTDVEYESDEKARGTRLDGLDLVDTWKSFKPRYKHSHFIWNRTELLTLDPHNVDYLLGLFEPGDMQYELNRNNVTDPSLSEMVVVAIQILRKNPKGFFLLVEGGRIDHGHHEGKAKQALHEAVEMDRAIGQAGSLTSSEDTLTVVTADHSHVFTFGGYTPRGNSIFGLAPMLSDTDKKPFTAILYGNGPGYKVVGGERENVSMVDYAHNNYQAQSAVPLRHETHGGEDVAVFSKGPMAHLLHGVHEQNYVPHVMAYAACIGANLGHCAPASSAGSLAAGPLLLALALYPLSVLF
# [13] = molecular target: T3, Runt-related transcription factor 1/Core-binding factor subunit beta (Homo sapiens, UniProt Q01196+Q13951); test: disruptors of Runt domain/CBFb-SMMHC interaction – biochemical, FRET, Cerulean-Runt, Venus-CBFb-SMMHC, uHTS, […] (AID 1434); type: protein assay
# T3 sequence (Q01196 whole entry, the tested form may be a part): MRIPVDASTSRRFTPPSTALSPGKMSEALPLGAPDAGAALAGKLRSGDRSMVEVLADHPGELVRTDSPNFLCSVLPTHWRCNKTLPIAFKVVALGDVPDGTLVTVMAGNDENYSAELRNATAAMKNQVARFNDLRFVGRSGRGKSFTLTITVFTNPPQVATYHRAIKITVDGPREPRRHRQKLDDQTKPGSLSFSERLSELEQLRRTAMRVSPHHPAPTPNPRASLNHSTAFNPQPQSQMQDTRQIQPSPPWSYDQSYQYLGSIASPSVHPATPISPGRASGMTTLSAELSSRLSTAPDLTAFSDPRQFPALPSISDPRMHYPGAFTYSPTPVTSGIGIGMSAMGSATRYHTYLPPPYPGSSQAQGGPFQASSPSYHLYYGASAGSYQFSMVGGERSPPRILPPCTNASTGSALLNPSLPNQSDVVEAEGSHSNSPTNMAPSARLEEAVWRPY
# T3 sequence (Q13951 whole entry, the tested form may be a part): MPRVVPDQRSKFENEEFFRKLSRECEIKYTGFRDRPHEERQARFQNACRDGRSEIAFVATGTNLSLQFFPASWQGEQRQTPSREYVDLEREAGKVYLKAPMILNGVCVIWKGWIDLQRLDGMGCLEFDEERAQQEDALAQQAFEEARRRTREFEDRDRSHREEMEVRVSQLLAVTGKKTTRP
# [14] = molecular target: T3, Runt-related transcription factor 1/Core-binding factor subunit beta; test: Runt domain/CBFb-SMMHC interaction disruptors – biochemical, TR-FRET (AID 1438); type: protein assay
# [15] = molecular target: DNA damage-inducible transcript 3 protein (Mus musculus, UniProt P35639); type: functional, Cricetulus griseus
# Sequence of DNA damage-inducible transcript 3 protein (P35639 whole entry): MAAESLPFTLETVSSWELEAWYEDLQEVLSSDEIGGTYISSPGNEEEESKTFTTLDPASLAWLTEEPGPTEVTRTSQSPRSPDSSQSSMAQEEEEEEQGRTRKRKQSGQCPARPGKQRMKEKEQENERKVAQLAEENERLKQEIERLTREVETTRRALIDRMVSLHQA
# X-box-binding protein 1 = X-box-binding protein 1 (Homo sapiens, UniProt P17861); type: functional, Cricetulus griseus;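 also: confirmatory dose-response counter-screen serving a CHOP assay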
# Sequence of X-box-binding protein 1 (P17861 whole entry): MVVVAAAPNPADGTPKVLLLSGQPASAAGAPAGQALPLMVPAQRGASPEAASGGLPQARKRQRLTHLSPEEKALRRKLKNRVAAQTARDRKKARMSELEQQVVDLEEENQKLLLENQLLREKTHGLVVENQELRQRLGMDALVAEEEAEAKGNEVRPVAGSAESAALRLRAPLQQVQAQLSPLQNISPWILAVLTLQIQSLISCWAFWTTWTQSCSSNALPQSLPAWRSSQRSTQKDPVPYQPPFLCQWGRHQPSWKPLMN
# [16] = molecular target: T4, Heat shock factor protein 1 (Mus musculus, UniProt P38532); test: enhancement of HSF1-driven luciferase signal – cell-based, NIH3T3, luminescence, dose retest, confirmation (AID 435004); type: functional;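 also: stress induced by proteasome inhibitor MG132 added 30 min after compound; luciferase reporter driven by HSF1 response element in NIH3T3 cells; actives raise luminescence as potentiators of the MG132 stress response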
# T4 sequence (P38532 whole entry): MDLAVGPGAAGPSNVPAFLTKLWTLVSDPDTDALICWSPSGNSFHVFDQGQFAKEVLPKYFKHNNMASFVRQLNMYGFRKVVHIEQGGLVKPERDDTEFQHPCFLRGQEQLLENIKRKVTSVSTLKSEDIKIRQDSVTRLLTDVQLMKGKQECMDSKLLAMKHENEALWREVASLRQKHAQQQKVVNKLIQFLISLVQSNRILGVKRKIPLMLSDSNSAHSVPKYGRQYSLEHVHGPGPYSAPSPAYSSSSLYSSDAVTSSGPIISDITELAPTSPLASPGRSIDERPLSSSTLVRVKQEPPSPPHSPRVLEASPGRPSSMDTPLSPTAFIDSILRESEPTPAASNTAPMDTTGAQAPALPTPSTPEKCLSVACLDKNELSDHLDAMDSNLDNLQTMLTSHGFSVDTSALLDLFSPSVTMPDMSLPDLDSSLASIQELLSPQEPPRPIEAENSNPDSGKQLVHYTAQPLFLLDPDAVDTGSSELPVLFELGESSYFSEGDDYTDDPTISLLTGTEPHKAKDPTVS
# [17] = molecular target: T5, Replicative DNA helicase DnaB (Mycobacterium tuberculosis, UniProt P9WMR3); test: DnaB intein splicing inhibitors, dose response, biochemical, cell-free fluorescence (AID 449749); type: functional
# T5 sequence (P9WMR3 whole entry): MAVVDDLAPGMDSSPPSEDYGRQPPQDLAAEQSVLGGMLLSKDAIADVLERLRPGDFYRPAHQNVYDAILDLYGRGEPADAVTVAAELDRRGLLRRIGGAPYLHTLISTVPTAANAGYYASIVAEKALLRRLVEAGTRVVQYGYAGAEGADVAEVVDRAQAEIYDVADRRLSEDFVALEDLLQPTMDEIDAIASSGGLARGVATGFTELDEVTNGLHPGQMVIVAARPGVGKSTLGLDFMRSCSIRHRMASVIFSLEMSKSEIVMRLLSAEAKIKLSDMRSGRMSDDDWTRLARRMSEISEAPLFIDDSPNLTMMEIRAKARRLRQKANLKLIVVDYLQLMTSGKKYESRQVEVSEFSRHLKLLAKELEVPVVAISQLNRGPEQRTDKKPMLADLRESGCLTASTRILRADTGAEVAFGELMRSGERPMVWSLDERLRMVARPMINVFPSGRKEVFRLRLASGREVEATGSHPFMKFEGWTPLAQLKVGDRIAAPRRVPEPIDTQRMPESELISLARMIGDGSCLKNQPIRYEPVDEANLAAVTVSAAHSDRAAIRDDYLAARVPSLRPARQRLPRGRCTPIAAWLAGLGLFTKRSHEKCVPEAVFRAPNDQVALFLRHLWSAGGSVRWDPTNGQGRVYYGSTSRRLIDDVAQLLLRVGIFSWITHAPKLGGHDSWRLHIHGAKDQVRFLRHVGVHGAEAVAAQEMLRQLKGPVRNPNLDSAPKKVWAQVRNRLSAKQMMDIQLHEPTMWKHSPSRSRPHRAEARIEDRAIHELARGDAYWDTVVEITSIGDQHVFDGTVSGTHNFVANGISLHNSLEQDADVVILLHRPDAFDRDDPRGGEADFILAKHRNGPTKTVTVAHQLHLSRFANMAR
# Protein RecA = molecular target: T6, Protein RecA (Mycobacterium tuberculosis, UniProt P9WHJ3); test: Fluorescence Cell-Free Homogeneous Dose Retest to Identify Inhibitors of RecA-Intein Splicing Activity. [Related pubchem assays (depositor defined):AID2097, AID2223, AID489010, AID492950]; type: functional
# T6 sequence (P9WHJ3 whole entry): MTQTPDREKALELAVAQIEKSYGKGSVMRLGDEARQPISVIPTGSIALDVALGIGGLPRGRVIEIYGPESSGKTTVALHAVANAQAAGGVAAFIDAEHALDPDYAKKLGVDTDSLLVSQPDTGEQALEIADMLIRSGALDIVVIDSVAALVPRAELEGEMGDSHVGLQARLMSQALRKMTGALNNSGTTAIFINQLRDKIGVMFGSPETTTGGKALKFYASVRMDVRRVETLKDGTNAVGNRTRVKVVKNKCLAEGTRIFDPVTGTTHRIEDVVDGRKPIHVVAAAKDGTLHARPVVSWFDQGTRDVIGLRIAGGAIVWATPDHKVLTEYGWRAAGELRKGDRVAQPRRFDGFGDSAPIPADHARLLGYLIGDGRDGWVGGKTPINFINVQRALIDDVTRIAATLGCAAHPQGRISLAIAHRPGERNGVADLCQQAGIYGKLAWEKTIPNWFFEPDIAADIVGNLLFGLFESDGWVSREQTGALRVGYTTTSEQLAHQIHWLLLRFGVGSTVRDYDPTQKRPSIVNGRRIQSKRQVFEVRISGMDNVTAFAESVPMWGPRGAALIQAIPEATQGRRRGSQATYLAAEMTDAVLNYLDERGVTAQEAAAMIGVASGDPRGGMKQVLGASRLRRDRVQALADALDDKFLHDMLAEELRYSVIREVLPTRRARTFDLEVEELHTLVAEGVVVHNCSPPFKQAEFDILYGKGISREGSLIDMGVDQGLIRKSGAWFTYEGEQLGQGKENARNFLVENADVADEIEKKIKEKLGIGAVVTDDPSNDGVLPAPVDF
# [18] = viability of uninfected HEp-2 cells – cell-based, HTS, cytotoxicity control for RSV inhibitor project, dose response (AID 2410); type: functional; conditions: human respiratory syncytial virus
# Large T antigen = Large T antigen (Simian virus 40, UniProt P03070); type: functional, Betapolyomavirus macacae;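 also: Confirmatory-stage PubChem screen for compounds that inhibit SV40 T antigen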
# Sequence of Large T antigen (P03070 whole entry): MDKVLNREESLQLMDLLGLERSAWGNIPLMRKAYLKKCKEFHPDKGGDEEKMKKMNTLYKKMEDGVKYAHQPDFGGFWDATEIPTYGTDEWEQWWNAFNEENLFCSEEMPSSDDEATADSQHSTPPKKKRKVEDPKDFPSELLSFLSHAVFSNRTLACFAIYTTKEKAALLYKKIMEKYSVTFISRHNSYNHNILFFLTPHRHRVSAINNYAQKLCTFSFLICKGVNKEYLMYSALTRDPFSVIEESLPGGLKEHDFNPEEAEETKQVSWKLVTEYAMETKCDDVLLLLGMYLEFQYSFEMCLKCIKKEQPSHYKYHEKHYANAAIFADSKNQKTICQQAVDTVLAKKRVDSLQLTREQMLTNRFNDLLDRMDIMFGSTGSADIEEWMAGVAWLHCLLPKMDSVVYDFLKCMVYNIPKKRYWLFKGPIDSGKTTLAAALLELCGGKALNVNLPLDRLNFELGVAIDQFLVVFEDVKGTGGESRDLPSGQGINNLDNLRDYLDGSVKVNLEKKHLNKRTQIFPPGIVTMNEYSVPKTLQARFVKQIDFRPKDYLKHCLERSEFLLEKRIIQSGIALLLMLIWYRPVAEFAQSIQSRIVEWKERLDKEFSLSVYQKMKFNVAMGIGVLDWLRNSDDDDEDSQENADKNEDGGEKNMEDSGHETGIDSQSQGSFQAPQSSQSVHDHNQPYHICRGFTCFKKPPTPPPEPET
# NS3 = NS3 (Hepatitis C virus, UniProt A3EZJ3); test: PubChem AID 2173; set-up: species or system Hepacivirus hominis
# Sequence of NS3 (A3EZJ3 whole entry): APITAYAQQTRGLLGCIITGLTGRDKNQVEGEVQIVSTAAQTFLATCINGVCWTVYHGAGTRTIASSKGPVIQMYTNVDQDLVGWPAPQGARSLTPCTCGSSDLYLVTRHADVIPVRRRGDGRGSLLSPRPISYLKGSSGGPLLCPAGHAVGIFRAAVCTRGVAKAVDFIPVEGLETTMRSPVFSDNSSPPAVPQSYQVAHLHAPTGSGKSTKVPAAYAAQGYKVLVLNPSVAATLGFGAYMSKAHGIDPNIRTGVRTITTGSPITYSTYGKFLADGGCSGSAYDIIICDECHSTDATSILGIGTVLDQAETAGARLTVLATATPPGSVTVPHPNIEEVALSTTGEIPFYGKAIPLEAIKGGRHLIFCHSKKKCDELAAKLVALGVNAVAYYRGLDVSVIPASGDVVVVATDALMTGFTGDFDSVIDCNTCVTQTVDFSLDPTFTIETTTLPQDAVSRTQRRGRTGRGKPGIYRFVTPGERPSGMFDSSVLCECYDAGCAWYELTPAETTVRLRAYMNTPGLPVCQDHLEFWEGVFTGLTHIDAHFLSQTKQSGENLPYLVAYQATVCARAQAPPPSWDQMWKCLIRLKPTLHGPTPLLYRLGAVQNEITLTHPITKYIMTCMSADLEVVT
# Hexokinase = Hexokinase (Trypanosoma brucei, UniProt Q38C41); test: Confirmation assay for inhibitors of Trypanosoma brucei hexokinase 1-Analogue-first series. [Related pubchem assays (depositor defined):AID1430, AID1632, AID2516, AID2560, AID2579, AID2600, AID449725, AID492951]; type: functional
# Sequence of Hexokinase (Q38C41 whole entry): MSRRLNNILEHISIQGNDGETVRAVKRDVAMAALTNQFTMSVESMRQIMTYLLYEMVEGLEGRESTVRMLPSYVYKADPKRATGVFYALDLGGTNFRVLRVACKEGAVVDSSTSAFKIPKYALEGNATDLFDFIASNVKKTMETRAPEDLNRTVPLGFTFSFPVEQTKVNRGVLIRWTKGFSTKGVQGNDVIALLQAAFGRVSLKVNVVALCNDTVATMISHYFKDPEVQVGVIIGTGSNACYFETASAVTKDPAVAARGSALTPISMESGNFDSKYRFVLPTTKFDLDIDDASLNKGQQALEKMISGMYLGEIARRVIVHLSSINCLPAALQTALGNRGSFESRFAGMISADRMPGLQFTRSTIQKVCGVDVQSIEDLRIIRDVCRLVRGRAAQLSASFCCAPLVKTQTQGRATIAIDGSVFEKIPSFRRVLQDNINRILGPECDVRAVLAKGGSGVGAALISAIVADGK
# CAAX prenyl protease 2 = CAAX prenyl protease 2 (Saccharomyces cerevisiae S288c, UniProt Q03530); type: biochemical
# Sequence of CAAX prenyl protease 2 (Q03530 whole entry): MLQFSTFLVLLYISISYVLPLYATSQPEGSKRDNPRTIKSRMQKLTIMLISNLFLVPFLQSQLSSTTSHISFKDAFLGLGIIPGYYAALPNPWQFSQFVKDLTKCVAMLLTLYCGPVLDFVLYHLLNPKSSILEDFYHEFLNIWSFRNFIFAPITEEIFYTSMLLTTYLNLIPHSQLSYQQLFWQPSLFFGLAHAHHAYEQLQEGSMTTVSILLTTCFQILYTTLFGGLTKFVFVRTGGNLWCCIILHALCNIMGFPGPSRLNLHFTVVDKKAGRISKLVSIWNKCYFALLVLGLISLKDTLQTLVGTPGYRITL
# [19] = Luminescence Cell-Based Dose Retest to Confirm Inhibitors of Cancer Stem Cells. [Related pubchem assays (depositor defined):AID2717, AID2721]; type: functional; conditions: Homo sapiens
# [20] = molecular target: T7, Ubiquitin-conjugating enzyme E2 N (Homo sapiens, UniProt P61088); type: functional;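 also: Dose-response confirmation in a TR-FRET assay detecting UBC13-driven polyubiquitin chain formation, inhibition measured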
# T7 sequence (P61088 whole entry): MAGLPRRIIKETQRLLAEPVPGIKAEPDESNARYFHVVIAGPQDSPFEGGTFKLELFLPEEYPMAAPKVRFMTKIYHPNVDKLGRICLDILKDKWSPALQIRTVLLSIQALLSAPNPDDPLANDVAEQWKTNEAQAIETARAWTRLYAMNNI
# Sequence of Luciferin 4-monooxygenase (P08659 whole entry): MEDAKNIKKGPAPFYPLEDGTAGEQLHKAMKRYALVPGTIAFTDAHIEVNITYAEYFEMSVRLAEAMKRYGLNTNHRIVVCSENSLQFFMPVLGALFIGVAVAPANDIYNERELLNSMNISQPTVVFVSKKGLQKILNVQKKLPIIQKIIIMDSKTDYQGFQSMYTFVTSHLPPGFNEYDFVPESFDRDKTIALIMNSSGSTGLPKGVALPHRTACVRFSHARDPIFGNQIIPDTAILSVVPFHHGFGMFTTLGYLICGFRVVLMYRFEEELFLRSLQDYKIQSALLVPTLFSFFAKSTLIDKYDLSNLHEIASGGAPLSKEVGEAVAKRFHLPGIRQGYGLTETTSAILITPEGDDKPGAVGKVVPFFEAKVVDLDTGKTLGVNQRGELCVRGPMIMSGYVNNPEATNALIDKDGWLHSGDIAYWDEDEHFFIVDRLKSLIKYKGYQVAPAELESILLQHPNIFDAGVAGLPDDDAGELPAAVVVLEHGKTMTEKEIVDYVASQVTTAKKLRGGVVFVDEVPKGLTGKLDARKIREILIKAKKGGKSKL
structure (smiles),measurement,setting,value
CCOC(=O)/C(=C\c1ccccc1)C(=O)c1cc(C(C)=O)c(Nc2ccccc2)s1,EC50,[1],< 0.2 µM (active)
same,EC50,[2],2.35 µM (active)
same,EC50,HT-1080,20.3 µM (active)
same,EC50,[3],6.8 µM (active)
same,EC50,[4],1.06 µM (active)
same,IC50,Vero [5],> 25 µM (active)
same,AC50,INS1,5.42 µM (active)
same,CC50,Vero [6],14.8 µM (active)
COc1cc2c(cc1NC(=O)c1cc(-c3cccnc3)nc3ccc(C)cc13)oc1ccccc12,EC50,[7],> 100 µM (inactive)
same,AC50,Cytochrome P450 2C9,2.51 µM (inconclusive)
Oc1ccc(Cl)cc1C1=NNC(c2cccs2)C1 (stereo unspecified),CC50,[8],22.6 µM (active)
same,CC50,[9],> 20 µM (active)
same,CC50,[10],> 20 µM (active)
same,IC50,cells,44.6 µM (active)
COC(=O)c1cc(-c2ccc(Cl)c(Cl)c2Cl)n[nH]1,IC50,[11],> 10 µM (inconclusive)
same,IC50,[12],0.24 µM (active)
CCOC(=O)c1cc2c(=O)n3cccc(C)c3nc2n(Cc2ccco2)/c1=N/C(=O)c1ccccc1,IC50,[13],13.1 µM (active)
same,IC50,[14],> 100 µM (inactive)
CCc1nc(NCC(C)C)c(C#N)c2c1COC(C)(C)C2,Absolute IC50 (CHOP),[15],10 µM
same,Absolute IC50 (XBP1),X-box-binding protein 1,10 µM
CCc1ccc(C2C3=C(O)CC(C)(C)CC3=Nc3c2c(O)nc2nc(C)nn32)cc1 (stereo unspecified),IC50,[13],3.68 µM (active)
same,IC50,[14],31.2 µM (active)
CCOC(=O)c1c(NC(=S)N2CCCCC2)sc2c1CCN(C(=O)OCC)C2,EC50,[4],5.41 µM (active)
same,EC50,[16],12.3 µM (active)
same,AC50,[17],3.64 µM (active)
same,EC50,Protein RecA,12.7 µM (active)
Cc1ccc(N2C(=O)NC(=O)/C(=C\C=C\c3ccco3)C2=O)cc1C,CC50,[18],> 50 µM (active)
same,IC50,Large T antigen,16.4 µM (active)
same,IC50,NS3,14.4 µM (not active)
same,EC50,[16],4.85 µM (active)
same,Absolute IC50 (CHOP),[15],10 µM
same,AC50,INS1,4.83 µM (active)
O=c1s[nH]c2ccccc12,IC50,Hexokinase,> 25 µM (inactive)
O=C(O)CCc1ccc(-c2cccs2)n1Cc1ccco1,AC50,CAAX prenyl protease 2,2.57 µM (active)
c1ccc(C[C@H]2CNCCN2CCCCC2CCCCC2)cc1,CC50,[8],13.9 µM (active)
same,AC50,[19],7.01 µM (active)
same,CC50,[9],12.2 µM (active)
same,IC50,[20],> 20 µM (inactive)
same,CC50,[10],18.1 µM (active)
same,IC50,cells,27.4 µM (active)
COc1ccc(C(=O)O)c(NC(=O)c2ccc(Cl)cc2)c1,IC50,Hexokinase,> 25 µM (inactive)
